Data reported in patent US20080175794A1, “Substituted Pyridazinyl- and Pyrimidinyl-Quinolin-4-Ylamine Analogues” (NEUROGEN CORPORATION, priority 2005, published 2008).

Target: T1, human capsaicin receptor (Homo sapiens, UniProt Q8NER1)
T1 construct: expressed in transfected cells
Experiment: Calcium mobilization assay, determination of antagonist activity (Example 6)
Format: cell-based
Settings: Table III; assay provided in Example 6; cells expressing human capsaicin receptor, capsaicin at EC50
Protocol: A cDNA encoding full length human capsaicin receptor (SEQ ID NO:1, 2 or 3 of U.S. Pat. No. 6,482,611) is subcloned in the plasmid pBK-CMV (Stratagene, La Jolla, Calif.) for recombinant expression in mammalian cells.
Human embryonic kidney (HEK293) cells are transfected with the pBK-CMV expression construct encoding the full length human capsaicin receptor using standard methods. The transfected cells are selected over two weeks in media containing G418 (400 μg/ml) to obtain a pool of stably transfected cells. Independent clones are isolated from this pool by limiting dilution to obtain clonal stable cell lines for use in subsequent experiments.
Cells transfected with expression plasmids (as described in Example 4) and thereby expressing human capsaicin receptor are seeded and grown to 70-90% confluency in FALCON black-walled, clear-bottomed 96-well plates (#3904, BECTON-DICKINSON, Franklin Lakes, N.J.). The culture medium is emptied from the 96 well plates and FLUO-3 AM calcium sensitive dye (Molecular Probes, Eugene, Oreg.) is added to each well (dye solution: 1 mg FLUO-3 AM, 440 μL DMSO and 440 μl 20% pluronic acid in DMSO, diluted 1:250 in Krebs-Ringer HEPES (KRH) buffer (25 mM HEPES, […], 0.96 mM NaH2PO4, 1 mM MgSO4, 2 mM CaCl2, 5 mM glucose, 1 mM probenecid, pH 7.4), 50 μl diluted solution per well). Plates are covered with aluminum foil and incubated at 37° C. for 1-2 hours in an environment containing 5% CO2. After the incubation, the dye is emptied from the plates, and the cells are washed once with KRH buffer, and resuspended in KRH buffer.
To measure the ability of a test compound to agonize or antagonize a calcium mobilization response in cells expressing capsaicin receptors to capsaicin or other vanilloid agonist, the EC50 of the agonist capsaicin is first determined. An additional 20 μl of KRH buffer and 1 μl DMSO is added to each well of cells, prepared as described above. 100 μl capsaicin in KRH buffer is automatically transferred by the FLIPR instrument to each well. Capsaicin-induced calcium mobilization is monitored using either FLUOROSKAN ASCENT (Labsystems; Franklin, Mass.) or FLIPR (fluorometric imaging plate reader system; Molecular Devices, Sunnyvale, Calif.) instruments. Data obtained between 30 and 60 seconds after agonist application are used to generate an 8-point concentration response curve, with final capsaicin concentrations of 1 nM to 3 μM. KALEIDAGRAPH software (Synergy Software, Reading, Pa.) is used to fit the data to the equation: […]
Test compounds are dissolved in DMSO, diluted in 20 μl KRH buffer so that the final concentration of test compounds in the assay well is between […] and 5 μM, and added to cells prepared as described above. The 96 well plates containing prepared cells and test compounds are incubated in the dark at room temperature for 0.5 to 6 hours. It is important that the incubation not continue beyond 6 hours. Just prior to determining the fluorescence response, 100 μl capsaicin in KRH buffer at twice the EC50 concentration determined as described above is automatically added by the FLIPR instrument to each well of the 96 well plate for a final sample volume of 200 μl and a final capsaicin concentration equal to the EC50. The final concentration of test compounds in the assay wells is between 1 μM and 5 μM. […] The concentration of antagonist required to provide a 50% decrease, relative to the response observed in the presence of capsaicin and without antagonist, is the IC50 for the antagonist, and is preferably below 1 micromolar, 100 nanomolar, 10 nanomolar or 1 nanomolar.

T1 sequence (Q8NER1 whole entry): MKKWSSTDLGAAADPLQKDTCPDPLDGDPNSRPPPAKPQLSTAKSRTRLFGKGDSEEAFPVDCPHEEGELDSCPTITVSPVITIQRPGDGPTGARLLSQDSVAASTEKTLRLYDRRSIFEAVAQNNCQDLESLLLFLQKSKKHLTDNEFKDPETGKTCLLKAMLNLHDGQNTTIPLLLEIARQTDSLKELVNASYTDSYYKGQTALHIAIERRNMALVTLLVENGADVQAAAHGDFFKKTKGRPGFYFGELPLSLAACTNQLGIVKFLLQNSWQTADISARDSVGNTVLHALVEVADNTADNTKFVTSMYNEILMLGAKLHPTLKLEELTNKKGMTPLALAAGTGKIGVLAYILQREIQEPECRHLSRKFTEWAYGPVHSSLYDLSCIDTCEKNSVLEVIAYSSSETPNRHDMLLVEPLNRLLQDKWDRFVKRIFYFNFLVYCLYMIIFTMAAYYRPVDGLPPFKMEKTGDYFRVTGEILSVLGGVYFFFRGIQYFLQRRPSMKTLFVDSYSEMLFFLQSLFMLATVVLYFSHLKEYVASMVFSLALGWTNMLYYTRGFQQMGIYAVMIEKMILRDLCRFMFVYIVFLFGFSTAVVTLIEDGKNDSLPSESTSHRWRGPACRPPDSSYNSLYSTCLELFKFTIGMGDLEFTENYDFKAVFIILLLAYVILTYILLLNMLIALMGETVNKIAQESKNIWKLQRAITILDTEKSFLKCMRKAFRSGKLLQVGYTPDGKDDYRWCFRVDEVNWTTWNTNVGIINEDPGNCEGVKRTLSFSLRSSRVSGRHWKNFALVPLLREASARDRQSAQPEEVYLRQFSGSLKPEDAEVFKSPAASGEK

Row | IC50 [nM] | SMILES
1 | < 1000 | CCCN(C)c1cc(C(F)(F)F)c(-c2cnc3c(Nc4ccc(C(F)(F)F)cn4)ccnc3n2)nn1 [Compound 121, 3-{6-[methyl(propyl)amino]-4-(trifluoromethyl)pyridazin-3-yl}-N-[5-(trifluoromethyl)pyridin-2-yl]pyrido[2,3-b]pyrazin-8-amine]
2 | < 1000 | CCCCN(C)c1cc(C(F)(F)F)c(-c2cnc3c(Nc4ccc(C(F)(F)F)cn4)ccnc3n2)nn1 [Compound 122, 3-{6-[butyl(methyl)amino]-4-(trifluoromethyl)pyridazin-3-yl}-N-[5-(trifluoromethyl)pyridin-2-yl]pyrido[2,3-b]pyrazin-8-amine]
3 | < 1000 | CN(CC#N)c1cc(C(F)(F)F)c(-c2cnc3c(Nc4ccc(C(F)(F)F)cn4)ccnc3n2)nn1 [Compound 124, {methyl[5-(trifluoromethyl)-6-(8-{[5-(trifluoromethyl)pyridin-2-yl]amino}pyrido-[2,3-b]pyrazin-3-yl)pyridazin-3-yl]amino}acetonitrile]
4 | < 1000 | C#CCN(C)c1cc(C(F)(F)F)c(-c2cnc3c(Nc4ccc(C(F)(F)F)cn4)ccnc3n2)nn1 [Compound 125, 3-{6-[methyl(prop-2-yn-1-yl)amino]-4-(trifluoromethyl)pyridazin-3-yl}-N-[5-(trifluoromethyl)pyridin-2-yl]pyrido[2,3-b]pyrazin-8-amine]
5 | < 1000 | CCN(CC)c1cc(C(F)(F)F)c(-c2cnc3c(Nc4ccc(C(F)(F)F)cn4)ccnc3n2)nn1 [Compound 126, 3-[6-(diethylamino)-4-(trifluoromethyl)pyridazin-3-yl]-N-[5-(trifluoromethyl)pyridin-2-yl]pyrido[2,3-b]pyrazin-8-amine]
6 | < 1000 | CCN(c1cc(C(F)(F)F)c(-c2cnc3c(Nc4ccc(C(F)(F)F)cn4)ccnc3n2)nn1)C(C)C [Compound 128, 3-{6-[ethyl(isopropyl)amino]-4-(trifluoromethyl)pyridazin-3-yl}-N-[5-(trifluoromethyl)pyridin-2-yl]pyrido[2,3-b]pyrazin-8-amine]
7 | < 1000 | CC1CCCN1c1cc(C(F)(F)F)c(-c2cnc3c(Nc4ccc(C(F)(F)F)cn4)ccnc3n2)nn1 (centres unmarked) [Compound 129, 3-[6-(2-methylpyrrolidin-1-yl)-4-(trifluoromethyl)pyridazin-3-yl]-N-[5-(trifluoromethyl)pyridin-2-yl]pyrido[2,3-b]pyrazin-8-amine]

The next lines start with the molecule.

Row | SMILES | IC50 [nM]
8 | FC(F)(F)c1ccc(Nc2ccnc3nc(-c4nnc(NCC5CC5)cc4C(F)(F)F)cnc23)nc1 [Compound 103, 3-{6-[(cyclopropylmethyl)amino]-4-(trifluoromethyl)pyridazin-3-yl}-N-[5-(trifluoromethyl)pyridin-2-yl]pyrido[2,3-b]pyrazin-8-amine] | < 1000
9 | CCCCNc1cc(C(F)(F)F)c(-c2cnc3c(Nc4ccc(C(F)(F)F)cn4)ccnc3n2)nn1 [Compound 104, 3-[6-(butylamino)-4-(trifluoromethyl)pyridazin-3-yl]-N-[5-(trifluoromethyl)pyridin-2-yl]pyrido[2,3-b]pyrazin-8-amine] | < 1000
10 | CC(C)CCNc1cc(C(F)(F)F)c(-c2cnc3c(Nc4ccc(C(F)(F)F)cn4)ccnc3n2)nn1 [Compound 106, 3-{6-[(3-methylbutyl)amino]-4-(trifluoromethyl)pyridazin-3-yl}-N-[5-(trifluoromethyl)pyridin-2-yl]pyrido[2,3-b]pyrazin-8-amine] | < 1000
11 | FC(F)(F)c1ccc(Nc2ccnc3nc(-c4nnc(NC5CCC5)cc4C(F)(F)F)cnc23)nc1 [Compound 107, 3-[6-(cyclobutylamino)-4-(trifluoromethyl)pyridazin-3-yl]-N-[5-(trifluoromethyl)pyridin-2-yl]pyrido[2,3-b]pyrazin-8-amine] | < 1000
12 | CCC(C)Nc1cc(C(F)(F)F)c(-c2cnc3c(Nc4ccc(C(F)(F)F)cn4)ccnc3n2)nn1 (centres unmarked) [Compound 108, 3-[6-(sec-butylamino)-4-(trifluoromethyl)pyridazin-3-yl]-N-[5-(trifluoromethyl)pyridin-2-yl]pyrido[2,3-b]pyrazin-8-amine] | < 1000
13 | FC(F)(F)c1ccc(Nc2ccnc3nc(-c4nnc(NC5CCCC5)cc4C(F)(F)F)cnc23)nc1 [Compound 109, 3-[6-(cyclopentylamino)-4-(trifluoromethyl)pyridazin-3-yl]-N-[5-(trifluoromethyl)pyridin-2-yl]pyrido[2,3-b]pyrazin-8-amine] | < 1000
14 | FC(F)(F)c1ccc(Nc2ccnc3nc(-c4nnc(NC5CCCCC5)cc4C(F)(F)F)cnc23)nc1 [Compound 110, 3-[6-(cyclohexylamino)-4-(trifluoromethyl)pyridazin-3-yl]-N-[5-(trifluoromethyl)pyridin-2-yl]pyrido[2,3-b]pyrazin-8-amine] | < 1000
15 | CC(C)C(C)Nc1cc(C(F)(F)F)c(-c2cnc3c(Nc4ccc(C(F)(F)F)cn4)ccnc3n2)nn1 (centres unmarked) [Compound 111, 3-{6-[(1,2-dimethylpropyl)amino]-4-(trifluoromethyl)pyridazin-3-yl}-N-[5-(trifluoromethyl)pyridin-2-yl]pyrido[2,3-b]pyrazin-8-amine] | < 1000
16 | FC(F)(F)c1ccc(Nc2ccnc3nc(-c4nnc(NCC5CCCO5)cc4C(F)(F)F)cnc23)nc1 (centres unmarked) [Compound 112, 3-{6-[(tetrahydrofuran-2-ylmethyl)amino]-4-(trifluoromethyl)pyridazin-3-yl}-N-[5-(trifluoromethyl)pyridin-2-yl]pyrido[2,3-b]pyrazin-8-amine] | < 1000
17 | NC(=O)CNc1cc(C(F)(F)F)c(-c2cnc3c(Nc4ccc(C(F)(F)F)cn4)ccnc3n2)nn1 [Compound 113, N2-[5-(trifluoromethyl)-6-(8-{[5-(trifluoromethyl)pyridin-2-yl]amino}pyrido[2,3-b]pyrazin-3-yl)pyridazin-3-yl]glycinamide] | < 1000
18 | OCCCCCNc1cc(C(F)(F)F)c(-c2cnc3c(Nc4ccc(C(F)(F)F)cn4)ccnc3n2)nn1 [Compound 115, 5-{[5-(trifluoromethyl)-6-(8-{[5-(trifluoromethyl)pyridin-2-yl]amino}pyrido[2,3-b]pyrazin-3-yl)pyridazin-3-yl]amino}pentan-1-ol] | < 1000
19 | CC(O)CNc1cc(C(F)(F)F)c(-c2cnc3c(Nc4ccc(C(F)(F)F)cn4)ccnc3n2)nn1 (centres unmarked) [Compound 116, 1-{[5-(trifluoromethyl)-6-(8-{[5-(trifluoromethyl)pyridin-2-yl]amino}pyrido[2,3-b]pyrazin-3-yl)pyridazin-3-yl]amino}propan-2-ol] | < 1000
20 | CC(CO)Nc1cc(C(F)(F)F)c(-c2cnc3c(Nc4ccc(C(F)(F)F)cn4)ccnc3n2)nn1 (centres unmarked) [Compound 117, 2-{[5-(trifluoromethyl)-6-(8-{[5-(trifluoromethyl)pyridin-2-yl]amino}pyrido[2,3-b]pyrazin-3-yl)pyridazin-3-yl]amino}propan-1-ol] | < 1000
21 | CCC(CO)Nc1cc(C(F)(F)F)c(-c2cnc3c(Nc4ccc(C(F)(F)F)cn4)ccnc3n2)nn1 (centres unmarked) [Compound 118, 2-{[5-(trifluoromethyl)-6-(8-{[5-(trifluoromethyl)pyridin-2-yl]amino}pyrido[2,3-b]pyrazin-3-yl)pyridazin-3-yl]amino}butan-1-ol] | < 1000
22 | CCCC(CO)Nc1cc(C(F)(F)F)c(-c2cnc3c(Nc4ccc(C(F)(F)F)cn4)ccnc3n2)nn1 (centres unmarked) [Compound 119, 2-{[5-(trifluoromethyl)-6-(8-{[5-(trifluoromethyl)pyridin-2-yl]amino}pyrido[2,3-b]pyrazin-3-yl)pyridazin-3-yl]amino}pentan-1-ol] | < 1000
23 | FC(F)(F)c1ccc(Nc2ccnc3nc(-c4nnc(N5CCCC5)cc4C(F)(F)F)cnc23)nc1 [Compound 120, 3-[6-pyrrolidin-1-yl-4-(trifluoromethyl)pyridazin-3-yl]-N-[5-(trifluoromethyl)pyridin-2-yl]pyrido[2,3-b]pyrazin-8-amine] | < 1000
